Converted amounts (≈) assume the structure as drawn. Marks after values point to notes of the source that are not given here. Square brackets hold non-standard residues; d marks the D form. Peptide text beside a SMILES is read from it. Ac6c = NC1(C(=O)O)CCCCC1
Columns and labels:
E. coli 70S ribosome [1] = assay: Competitive FP binding screening assay with Cf-ARV-1502 (relative FP); design: species or system E. coli BW25113; settings: for Ribosome Binding (%): competitive ribosome binding against Cf-ARV-1502 (relative FP; values match 1.2 µmol/L peptide), low value = strong competition; for Inhibition of Cf-ARV-1502 binding to the 70S ribosome (in words): Figure 3: peptide concentration 1.2 µmol/L
Procedure: E. coli 70S ribosomes were prepared using a previously described protocol that was slightly modified. Briefly, E. coli BW25113 was cultivated in Luria-Bertani (LB) medium and cells were harvested after reaching an optical density of ~4 at 600 nm by centrifugation (5000× g, 15 min, 4 °C, Rotor JLA 8.100, Avanti J-20 XP, Beckmann Coulter, Krefeld, Germany). The cell pellets were frozen and stored at −80 °C. Cells were resuspended in ribosome buffer (2 mL/g cells; 20 mmol/L HEPES-KOH, 6 mmol/L MgCl2, 30 mmol/L NH4Cl, 4 mmol/L 2-mercaptoethanol, pH 7.6). Lysozyme (0.25 g/L cell suspension) was added, and the mixture was incubated on ice for 30 min. Cells were disrupted using the bead mill homogenizer FastPrep-24™ 5G (40 s, 4 m/s, 6 cycles, MP Biomedicals Germany GmbH, Eschwege, Germany) and zirconia/silica beads (0.1 mm diameter). The lysate was centrifuged (1500× g, 5 min, 4 °C, Rotor S4180, Allegra 21R, Beckmann Coulter) and the supernatant was incubated with DNase (5 U/mL) on ice for 60 min. The cell debris was removed by two centrifugation steps (16,000× g, 30 min, 4 °C followed by 32,000× g, 60 min, 4 °C, Rotor JA 30.50 Ti, Avanti J-30I, Beckmann Coulter). The ribosome was pelleted by ultracentrifugation (165,000× g, 17 h, 4 °C, Rotor 70 Ti, Optima LE-80K, Beckmann Coulter), resuspended in ribosome buffer (0.1 mL/g pellet), and stored at −80 °C. The ribosome concentration was determined by recording the absorbance of RNA at 260 nm (NanoPhotometer NP80, Implen GmbH, München, Germany) assuming that 1 AU corresponds to a ribosome concentration of 28 nmol/L. The molecular weight of the E. coli 70S ribosome was assumed to be 2.3 MDa.
E. coli 70S ribosomes and Cf-ARV-1502 were incubated with four different concentrations of unlabeled peptides chosen based on the IC50 curves of reference peptide ARV-1502. Each peptide was diluted in ribosome buffer to obtain a concentration of 4.8 µmol/L and transferred to a 384-well-plate. Peptides were then twofold serially diluted in four steps from 4.8 to 0.6 µmol/L (20 µL). The ribosome extract was diluted in ribosome buffer to reach a concentration of 2 µmol/L and 10 µL were added to each well to obtain a final ribosome concentration of 0.5 µmol/L. Plates were centrifuged (2 min, 500× g, Rotor S2096, Allegra^TM 21R, Beckmann Coulter) and incubated at 28 °C for 90 min. Cf-labeled ARV-1502 was added (10 µL; final concentration of 20 nmol/L) and the plates were again centrifuged and incubated (28 °C, 90 min). After incubation, fluorescence polarization was recorded on a […]^TM microplate reader (λex = 485 nm, λem = 535 nm).
On each plate 12 minimum (30 µL ribosome buffer and 10 µL Cf-ARV-1502) and 12 maximum (20 µL ribosome buffer, 10 µL ribosome solution and 10 µL Cf-ARV-1502) control samples were added. Fluorescence polarization of screening samples was normalized to the fluorescence polarization of these control samples. All screening samples were measured in triplicates and the whole experiment was repeated once on another day.

E. coli BW25113 = assay: MIC, liquid broth micro dilution, wild type; format: cell-based, Escherichia coli
Procedure: (§1) MIC values were determined using a liquid broth micro dilution assay in sterile 96-well plates (polystyrene F-bottom, Greiner Bio-One GmbH) and a total volume of 100 μL per well. Aqueous peptide solutions (10 g/L) were serially twofold diluted in 25% Mueller-Hinton broth 2 (25% MBH2) or 33% tryptic soy broth (33% TSB) starting at a peptide concentration of 128 mg/L (50 μL/well). Overnight cultures of bacteria grown in 25% MHB2 (or 33% TSB) were diluted 30-fold in 25% MHB2 (or 33% TSB). After an incubation period of 4 h (37 °C, 200 rpm), cells were diluted to 1.5 × 10^7 cfu/mL, based on a McFarland test, and 50 μL were added to each well (final concentration of 7.5 × 10^6 […]). The plates were incubated (37 °C, 20 h) and the optical density was recorded at 595 nm using a microplate reader ([…]^TM, Beckmann Coulter). The MIC was defined as the lowest peptide concentration preventing visible bacterial growth.

[2] = test system: E. coli BW25113 ∆sbmA ∆mdtM; format: cell-based, Escherichia coli; settings: for Effect of the additional mdtM knockout on antibacterial activity: ∆sbmA ∆mdtM compared with ∆sbmA; for Minimal Inhibitory Concentration, 25% MHB2, ∆sbmA ∆mdtM: 25% MHB2, 37 °C; for Minimal Inhibitory Concentration, 25% MHB2, ∆sbmA ∆mdtM / Minimal Inhibitory Concentration, 33% TSB, ∆sbmA ∆mdtM: 20 h, at least duplicates on two days, * once on two days, ** duplicate on one day; for Minimal Inhibitory Concentration, 33% TSB, ∆sbmA ∆mdtM: 37 °C
Procedure: as §1

E. coli 70S ribosome [3] = assay: Cell-free GFP expression assay (in vitro translation); format: biochemical; settings: for In Vitro Translation (%): GFP expression remaining relative to control, concentration not given (higher concentration 50 µmol/L); for Reduction of GFP expression, 50 µmol/L peptide: cell-free expression, peptide-to-ribosome ratio of 25, GFP fluorescence, 37 °C
Excerpt: Possible effects of ARV-1502 and its substituted analogs on the in vitro translation of the green fluorescent protein (GFP) were probed using the NEB PureExpress Delta RF123 Kit (New England Biolabs, Ipswich, MA, USA). The sfGFP DNA template was amplified from pY71sfGFP plasmid by PCR introducing an UAA stop codon. Release factor 1 (RF1) was 50fold diluted in Pure System Buffer (PSB) containing magnesium acetate (1 mol/L), monopotassium phosphate (0.5 mol/L, pH 7.3), potassium glutamate (1 mol/L), NH4Cl (1 mol/L), calcium chloride (0.5 mol/L), spermidine (1 mol/L), putrescine (0.1 mol/L), and DTT (0.1 mol/L). Each reaction used 35 ng of sfGFP template. Peptides were added at a final concentration of 5 µmol/L and 50 µmol/L. The reaction was started by adding Kit solutions A (2 µL) and B (1.5 µL), diluted RF1 (0.5 µL), sfGFP template (0.25 µL or water as negative control), PSB (0.25 µL), and peptide (0.5 µL or water), mixed, transferred into a black 384-well plate (flat bottom, Greiner Bio-One GmbH), and incubated (37 °C, 2 h). The fluorescence was recorded every 10 min (λexc = 485 nm, λem = 535 nm) in a microplate reader (Gemini EM, Molecular Devices LLC, San Jose, CA, USA).

E. coli BW25113 ∆sbmA = format: cell-based, Escherichia coli; settings: 20 h, at least duplicates on two days, * once on two days, ** duplicate on one day; for Minimal Inhibitory Concentration, 25% MHB2, ∆sbmA: 25% MHB2, 37 °C; for Minimal Inhibitory Concentration, 33% TSB, ∆sbmA: 37 °C
Procedure: as §1

[4] = 33% TSB, 37 °C, 20 h, at least duplicates on two days, * once on two days, ** duplicate on one day

CC(C)C[C@H](NC(=O)[C@H](Cc1ccc(O)cc1)NC(=O)[C@@H]1CCCN1C(=O)[C@H](CCCNC(=N)N)NC(=O)[C@@H]1CCCN1C(=O)[C@H](CO)NC(=O)[C@H](CCCCN)NC(=O)[C@@H]1CCCN1C(=O)[C@H](CCCNC(=N)N)NC(=O)C1(N)CCCCC1)C(=O)N1CCC[C@H]1C(=O)N[C@@H](CCCNC(=N)N)C(=O)N1CCC[C@H]1C(=O)N[C@@H](CCCNC(=N)N)C(=O)N1CCC[C@H]1C(=O)N1CCC[C@H]1C(=O)N[C@@H](CCCNC(=N)N)C(=O)N1CCC[C@H]1C(=O)N[C@H](C(=O)N[C@@H](CCCNC(=N)N)C(N)=O)C(C)C [Peptide 29] (H-[Ac6c]RPKSPRPYLPRPRPPRPVR-NH2; N-terminus and C-terminus assumed)
Ribosome Binding (%) (E. coli 70S ribosome [1]): 78.5 ± 3.3%
MIC (µg/mL), Table 3 (E. coli BW25113; BW25113, 4 h): 16 µg/mL (≈ 6.54 µM)
Minimal Inhibitory Concentration, 25% MHB2, wt (E. coli BW25113; BW25113, 20 h): 16 µg/mL
Minimal Inhibitory Concentration, 33% TSB, wt (E. coli BW25113; BW25113, 20 h): 32 µg/mL
Effect of the additional mdtM knockout on antibacterial activity [2]: no effect
In Vitro Translation (%) (E. coli 70S ribosome [3]): 74.3 ± 10.1%
Reduction of GFP expression, 50 µmol/L peptide (E. coli 70S ribosome [3]): ~ 25%

CC(C)[C@H](NC(=O)[C@@H]1CCCN1C(=O)[C@H](CCCNC(=N)N)NC(=O)[C@@H]1CCCN1C(=O)[C@@H]1CCCN1C(=O)[C@H](CCCNC(=N)N)NC(=O)[C@@H]1CCCN1C(=O)[C@H](CCCNC(=N)N)NC(=O)[C@@H]1CCCN1C(=O)[C@H](Cc1ccccc1)NC(=O)[C@H](Cc1ccc(O)cc1)NC(=O)[C@@H]1CCCN1C(=O)[C@H](CCCNC(=N)N)NC(=O)[C@@H]1CCCN1C(=O)[C@H](Cc1ccccc1)NC(=O)[C@H](Cc1ccccc1)NC(=O)[C@@H]1CCCN1C(=O)[C@H](CCCNC(=N)N)NC(=O)C1(N)CCCCC1)C(=O)N[C@@H](CCCNC(=N)N)C(N)=O [Peptide 96] (H-[Ac6c]RPFFPRPYFPRPRPPRPVR-NH2; N-terminus and C-terminus assumed)
Ribosome Binding (%) (E. coli 70S ribosome [1]): 62.9 ± 4.8%
MIC (µg/mL), Table 3 (E. coli BW25113; BW25113, 4 h): 16 µg/mL (≈ 6.25 µM)
Minimal Inhibitory Concentration, 25% MHB2, wt (E. coli BW25113; BW25113, 20 h): 16 µg/mL
Minimal Inhibitory Concentration, 33% TSB, wt (E. coli BW25113; BW25113, 20 h): 32 * µg/mL
Effect of the additional mdtM knockout on antibacterial activity [2]: no effect
In Vitro Translation (%) (E. coli 70S ribosome [3]): 77.2 ± 1.9%
Reduction of GFP expression, 50 µmol/L peptide (E. coli 70S ribosome [3]): ~ 25%

CC(C)C[C@H](NC(=O)[C@H](Cc1ccc(O)cc1)NC(=O)[C@@H]1CCCN1C(=O)[C@H](CCCNC(=N)N)NC(=O)[C@@H]1CCCN1C(=O)[C@H](Cc1ccccc1)NC(=O)[C@H](Cc1ccccc1)NC(=O)[C@@H]1CCCN1C(=O)[C@H](CCCNC(=N)N)NC(=O)C1(N)CCCCC1)C(=O)N[C@@H](CO)C(=O)N[C@@H](CCCNC(=N)N)C(=O)N1CCC[C@H]1C(=O)N[C@@H](CCCNC(=N)N)C(=O)N1CCC[C@H]1C(=O)N1CCC[C@H]1C(=O)N[C@@H](CCCNC(=N)N)C(=O)N1CCC[C@H]1C(=O)N[C@H](C(=O)N[C@@H](CCCNC(=N)N)C(N)=O)C(C)C [Peptide 99] (H-[Ac6c]RPFFPRPYLSRPRPPRPVR-NH2)
Inhibition of Cf-ARV-1502 binding to the 70S ribosome (in words) (E. coli 70S ribosome [1]): did not inhibit the binding of Cf-ARV-1502
Minimal Inhibitory Concentration, 25% MHB2, wt (E. coli BW25113; 25% MHB2, 37 °C, 20 h, at least duplicates on two days, * once on two days, ** duplicate on one day): 16 to 32 µg/mL
Minimal Inhibitory Concentration, 33% TSB, wt (E. coli BW25113; [4]): 64 µg/mL
Minimal Inhibitory Concentration, 25% MHB2, ∆sbmA ∆mdtM [2]: 32 µg/mL
Minimal Inhibitory Concentration, 33% TSB, ∆sbmA ∆mdtM [2]: 128 µg/mL
Effect of the additional mdtM knockout on antibacterial activity [2]: no effect
Minimal Inhibitory Concentration, 25% MHB2, ∆sbmA (E. coli BW25113 ∆sbmA): 32 µg/mL
Minimal Inhibitory Concentration, 33% TSB, ∆sbmA (E. coli BW25113 ∆sbmA): 128 µg/mL

CC(C)[C@H](NC(=O)[C@@H]1CCCN1C(=O)[C@H](CCCNC(=N)N)NC(=O)[C@@H]1CCCN1C(=O)[C@@H]1CCCN1C(=O)[C@H](CCCNC(=N)N)NC(=O)[C@@H]1CCCN1C(=O)[C@H](CCCNC(=N)N)NC(=O)[C@@H]1CCCN1C(=O)[C@H](Cc1ccccc1)NC(=O)[C@H](CCCCN)NC(=O)[C@@H]1CCCN1C(=O)[C@H](CCCNC(=N)N)NC(=O)[C@@H]1CCCN1C(=O)[C@H](CCCCN)NC(=O)[C@H](CC(=O)O)NC(=O)[C@@H]1CCCN1C(=O)[C@H](CCCNC(=N)N)NC(=O)C1(N)CCCCC1)C(=O)N[C@@H](CCCNC(=N)N)C(N)=O [Peptide 123] (H-[Ac6c]RPDKPRPKFPRPRPPRPVR-NH2)
Inhibition of Cf-ARV-1502 binding to the 70S ribosome (in words) (E. coli 70S ribosome [1]): did not inhibit the binding of Cf-ARV-1502
Minimal Inhibitory Concentration, 33% TSB, wt (E. coli BW25113; [4]): 128 µg/mL
MIC / activity against E. coli (E. coli BW25113; BW25113, 4 h): 16 to 32 µg/mL
Minimal Inhibitory Concentration, 25% MHB2, wt (E. coli BW25113; BW25113, 20 h): 32 µg/mL
Minimal Inhibitory Concentration, 25% MHB2, ∆sbmA ∆mdtM [2]: 128 µg/mL
Minimal Inhibitory Concentration, 33% TSB, ∆sbmA ∆mdtM [2]: >128 µg/mL
Effect of the additional mdtM knockout on antibacterial activity [2]: weakened the activity
Minimal Inhibitory Concentration, 25% MHB2, ∆sbmA (E. coli BW25113 ∆sbmA): 64 µg/mL
Minimal Inhibitory Concentration, 33% TSB, ∆sbmA (E. coli BW25113 ∆sbmA): >128 µg/mL
